Measured values from patent US9745554B2, “Method of improving cell proliferation of pancreatic progenitor cells in a pancreatic cell culture” (ReNeuron, Inc., priority 2006, dated 2017).

How the values were obtained:
human pancreatic cells = assay: Real-time quantitative RT-PCR of endocrine and progenitor marker gene expression; assay type: cell-based; details: additive in control media; pancreatic endocrine cultures; FIG. 7
Experimental: To determine the effects of survival media on endocrine lineage cells, we studied the gene expression of our expanded pancreatic cells by quantitative RT-PCR as shown for example in FIG. 6. Total cellular RNA was isolated from cells using Nucleospin RNA II kits (BD Biosciences, Inc.). Reverse transcription was performed using 5 μg of total RNA M-MLV reverse transcriptase (Invitrogen), 10 mM DTT, 0.5 mM dNTP (Sigma, St. Louis, Mo.), 25 ng/μl of Oligo(dt) 12-18 primer (Sigma), RNase inhibitor (Sigma) and 1× First-strand buffer (Invitrogen). The mixture was heated to 65° C. for 5 minutes. Reverse transcriptase was added and incubated at 37° C. for 60 minutes. Reactions were terminated and real-time quantitative PCR was performed according to the manufacturer's instructions using Light Cycler machines 1.0 and 2.0 (Roche) in the presence of […] of 5-fold diluted cDNA. Insulin, glucagon, Somatostatin, PDX-1, Neuro-D1, CK-19, amylase, HNF3-beta, and β-actin primer sequences were designed based on published human mRNA sequences. Data for mRNA was presented according to calculations using absolute quantification methods, or as a fold increase over the control. All expression levels of the different genes were normalized to β-actin. […]

caspases 3 and 7 = assay: Apo-ONE caspase 3/7 assay on cell lysates; assay type: cell-based, human; details: FIG. 1
Experimental: In some embodiments, the presence of caspases 3 and 7 and the extent of cell death is measured using the APO-ONE™ caspase assay (see, e.g., FIG. 1) according to the manufacturers instructions (Promega Inc., Madison, Wis.).
One of the hallmarks of apoptosis is caspase activation. The downstream caspases 3 and 7 have a consensus cleavage sequence DEVD (SEQ ID NO: 1). For determination of the extent of apoptosis in our cultures, we used the Apo-ONE assay system (Promega), according to the manufacturer's instructions (FIG. 1). Cells were plated on 96 well plates, and cell lysates were prepared in a buffer that supports caspase activity (Promega, Madison, Wis.) and analyzed on a fluorescent plate reader using the Apo-ONE caspase 3/7 fluorescent assay (Promega, Madison, Wis.) at an excitation wavelength was 485 run and an emission wavelength was 530 nm.

[1] = test system: cultured pancreatic cells
Experimental: At least one exogenous growth factor is added to the survival media in an amount sufficient to increase the level of activated Akt in the cultured cells. Typically, the growth factors are added in a concentration range from about 10 ng/ml to about 100 ng/ml of culture media (e.g., 10, 15, 20, 30, 40, 50, 60, 70, 80, 90, 100 ng/ml of culture media). Non-limiting exemplary growth factors suitable for use with the present invention may include members of the IGF, EGF, and PDGF families.

| Compound | insulin mRNA normalized to β-actin mRNA, fold increase over control media alone (human pancreatic cells) | caspase activation in pancreatic cells (caspases 3 and 7; 1 μM inhibitor, P0 adherent pancreatic cells) | concentration dependence of caspase inhibition (caspases 3 and 7; three independent experiments) | works as exogenous growth factor with the invention [1] |
| --- | --- | --- | --- | --- |
| CC(C)C(NC(=O)c1ccc2ccccc2n1)C(=O)NC(CC(=O)O)C(=O)COc1c(F)cccc1F (stereo not shown) [OPH-109, non-O-methylated Q-VD-OPH] | 10 fold | completely reversed the caspase activation | concentration dependence of caspase inhibition |  |
| VEGF |  |  |  | did not work |
